# Reference: patent publication EP0091090A2, “Bipyridine substituted imidazolidene copper complex and its use in food-producing animals, and bipyridine, 2,2'-(2-imidazolidinylidene) di-copper complex and use in animals” (INTERNATIONAL MINERALS & CHEMICAL CORPORATION, priority 1982, dated 1983)
# Values joined by “and” are separate entries in the source; they are usually repeats but may differ in a detail not shown here. Identical values can stand only once. Like-named read-outs stand apart in the source and are kept apart here.
# Experiments:
# [1] = Chick rye diet test system (Example 6); assay type: in vivo; conditions: compared to positive control (penicillin or bacitracin)
# Description: The Formula III compound can be tested in a chick rye diet test system. […] Useful antibiotics for the positive control comparison are penicillin or bacitracin.
# [2] = tested on: rumen fluid batch culture; assay: Batch rumen VFA and gas production screen (Example 8); assay type: cell-based, steers
# Method: The above Formula II composition was tested to determine its effectiveness as a feed additive for ruminants. The initial tests were in rumen fluid batch culture systems to determine the effect of the compound on volatile fatty acid/methane ratios (VFA/CH4).
# A 50/50.mixture of ground corn and ground alfalfa was used as the substrate for the subject rumen fluid batch culture test. The compound (Formula II) was present in the rumen fluid at 75 ppm.
# On day 1, rumen fluid was obtained from mature fistulated steers on 50/50 concentrate/roughage diets. The rumen fluid (RF) was strained through three layers of gauze cloth and equilibrated with C02 gas. Wheaton serum vials (125 ml) were prepared ahead with 20 ml continuous batch buffer and 100 mg 50/50 ground corn/ground alfalfa. Controls and compounds (dissolved in acetone) were set up according to indicated levels. The vials were kept under C02 gas until 20 ml of the strained RF was added. The vials were sealed and incubated at 39°C for 24 hours in a hot water bath. On successive days, gas samples (0.1 ml) were drawn for gas chromatography analysis before transferring 20 ml of the batch culture to another vial containing 20 ml of buffer, 100 mg substrate, and the corresponding compound. The remaining 20 ml was inoculated with 2 ml 6N HCl and centrifuged at 15,000 rpm for 15 minutes. Ether extracts were prepared for volatile fatty acid (VFA) analysis. Some minor adjustments were made in the temperatures on the Hewlett-Packard 5750 Gas-Liquid Chromatograph used for VFA analysis when the glass column used was changed from 1/2 inch diameter to 1J8 inch diameter.
# About 4 minutes was needed to record the sample.
# In the above tests, four control groups were run and the mean established.
# rumen microflora = assay: Batch culture assay for the degradation of starch (Example 3); assay type: cell-based, steers
# Description: The subject Formula ^IV compound was also compared to monensin in another rumen fluid batch culture test as set forth below. The test was designed to screen compounds for inhibition of starch breakdown by the rumen microflora. […] It is considered more desirable to avoid degradation of starch in the rumen so that it is passed on into the abomasum where it can be digested more efficiently. […] Test Procedure: Animals - Mature fistulated steers were maintained on concentrate, roughage, or concentrate/ roughage (50/50) rations. Animals were fed twice daily at 8:00 A.M. and 4:00 P.M.
# Culture Assays - Approximately two liters of rumen fluid were collected from fistulated animals with the use of a hand pump. The rumen fluid, collected in a stoppered flask, was then immediately taken to the laboratory for processing. Samples were taken at 8:00 A.M. just prior to the first feeding or at 1:00 P.M. (ca. 4-5 hours after the first feeding). Rumen fluid was strained through six layers of cotton gauze cloth into a flask that was flushed with C02 gas. The filtrate was centrifuged for 5 minutes at 100 rpm in a Sorvall centrifuge to remove large particulate material. The supernatant was again passed through six layers of gauze into a flask under C02 gas and stoppered.
# Batch Culture Assay for the Degradation of Starch - Twenty-five ml of rumen fluid prepared as above was added to serum vials (Wheaton Glass, 100 ml capacity) containing 0.25-1.00% final concentration starch as an energy substrate in 25 ml batch culture assay buffer. The serum vials were sealed under C02 gas phase, and incubations were carried out for 20-24 hours at 39°C on a New Brunswick rotary shaker (250 rpm). Each experimental vial was done in triplicate. The corn starch used in degradation experiments was previously washed with distilled water several times, filtered through an 8 micron (47 mm) Millipore filter, and dried at 90°C for 24 hours.
# At intervals of 0 and 24 hours, the entire contents in vials were centrifuged at 250 rpm for 5 minutes. The supernatants were carefully removed with a pipet and the remaining "starch pellets" resuspended in water and passed through borosilicate glass microfiber prefilters (Millipore AP 20-047-00). Filters were dried in an oven for 24 hours at 90°C, cooled and then weighed. The amount of starch remaining after 24 hours' incubation was compared with the amount present at 0 hours and the per cent of substrate degraded calculated.
# [3] = tested on: rumen fluid batch culture; assay: Rumen fluid batch culture test: volatile fatty acid, gas (CH4 + H2), protein and amino acid accumulation (Example 2); assay type: cell-based, steers
# Method: The above Formula IV composition was tested to determine its effectiveness as a feed additive for ruminants. The initial tests were in rumen fluid batch culture systems to determine the effect of the compound on volatile fatty acid/methane ratios (VFA/CH4). […] Test Procedure: A 50/50 mixture of ground corn and ground alfalfa was used as the substrate for the subject rumen fluid batch culture test. The compound (Formula IV ) was present in the rumen fluid in three separate test samples at 8.33, 25 and 75 ppm, respectively. On day 1, rumen fluid was obtained from mature fistulated steers on 50/50 concentrate/roughage diets. The rumen fluid (RF) was strained through three layers of gauze cloth and equilibrated with C02 gas. Wheaton serum vials (125 ml) were prepared ahead with 20 ml continuous batch buffer and 100 mg 50/50 ground corn/ground alfalfa. Controls and compounds (dissolved in acetone) were set up according to desired levels. The vials were kept under C02 gas until 20 ml of the strained RF was added. The vials were sealed and incubated at 39°C for 24 hours in a hot water bath. On successive days, gas samples (0.1 ml) were drawn for gas chromatography analysis before transferring 20 ml of the batch culture to another vial containing 20 ml of buffer, 100 mg substrate, and the corresponding compound. The remaining 20 ml was inoculated with 2 ml 6N HC1 and centrifuged at 15,000 rpm for 15 minutes. Ether extracts were prepared for volatile fatty acid (VFA) analysis. Some minor adjustments were made in the termperatures on the Hewlett-Packard 5750 Gas-Liquid Chromatograph used for VFA analysis when the glass column used was changed from 1/4 inch diameter to 1/8 inch diameter. Injection Port = 220°C Column Oven = 170°C Flame Detector = 250°C Only 4 minutes was needed to record the sample instead of the previous 7 minutes.
# [4] = 75 ppm, single runs of duplicate
compound,measurement,setting,value
"Pyridine, 2,2'-(2-imidazolidinyl- idene)di-, compound with CuCl2 (1/1) [Formula II Compound]",activity in chick rye diet test,[1],promising activity
same,acetate production,[2]; 75 ppm,"depressed acetate production compared to the negative control, and was comparable to monensin"
same,"CH4 (%), Average","[2]; 75 ppm, average",11.0%
same,"H2 (%), Average","[2]; 75 ppm, average",0.0%
same,"CH4, Percent Change","[2]; 75 ppm, change versus control average, 1440 min",-6.0%
same,"Acetate, Mean","[2]; 75 ppm, mean of duplicate",8.0 Mu Moles/ml
same,"Butyrate, Mean","[2]; 75 ppm, mean of duplicate",9.6 Mu Moles/ml
same,"Propionic, Mean","[2]; 75 ppm, mean of duplicate",14.8 Mu Moles/ml
same,"Total, Mean","[2]; 75 ppm, mean of duplicate",32.4 Mu Moles/ml
same,CH4 (%),"[2]; 75 ppm, single runs",11.2% and 10.8%
same,H2 (%),"[2]; 75 ppm, single runs",0.0%
same,Acetate,[2]; [4],6.8 Mu Moles/ml and 9.2 Mu Moles/ml
same,Butyrate,[2]; [4],8.9 Mu Moles/ml and 10.2 Mu Moles/ml
same,Propionic,[2]; [4],14.6 Mu Moles/ml and 15.0 Mu Moles/ml
same,Total,[2]; [4],38.4 Mu Moles/ml and 34.4 Mu Moles/ml
same,activity in rumen fluid batch culture tests,[2]; compared with iron and nickel salts of Formula I,best activity
same,propionate production,[2]; expected in tests to establish optimum dosage level,favorable shift to increased propionate production
"CC[C@@H](C(=O)[C@@H](C)[C@@H](O)[C@H](C)CCc1ccc(C)c(O)c1C(=O)O)[C@H]1O[C@](CC)([C@H]2CC[C@](O)(CC)[C@H](C)O2)C[C@@H]1C [lasalocid, reference compound]",effect on starch fermentation,rumen microflora; 25 ppm,neither monensin or lasalocid had any effect
"CC[C@@]1([C@@H]2O[C@@H]([C@H]3O[C@@](O)(CO)[C@H](C)C[C@@H]3C)C[C@@H]2C)CC[C@H]([C@]2(C)CC[C@]3(C[C@H](O)[C@@H](C)[C@@H]([C@@H](C)[C@@H](OC)[C@H](C)C(=O)O)O3)O2)O1 [Monensin, reference compound]",AA,[3],0.51 µmol/mL and 0.28 µmol/mL and 0.29 µmol/mL and 0.34 µmol/mL and 0.30 µmol/mL and 0.44 µmol/mL
same,CH4 produced on Day 10,[3],49
same,Caloric Value of CH4,[3],10.33
same,Caloric Value of H2,[3],0
same,Caloric Value of HAc,[3],105.04
same,Caloric Value of HBu,[3],50.34
same,Caloric Value of HFo,[3],0.98
same,Caloric Value of HPr,[3],180.46
same,Caloric Value of HiBu,[3],5.11
same,Caloric Value of HiVal,[3],2.17
same,"Caloric Value, Total (VFA's)",[3],344.10
same,Gross Cal Remaining in Feed,[3],364.76 cal
same,H2,[3],0 µ Moles
same,H2 produced on Day 10,[3],0
same,HAc (acetate) produced on Day 10,[3],501.6
same,HBu (butyrate) produced on Day 10,[3],96.8
same,HFo (formate) produced on Day 10,[3],15.60
same,HPr (propionate) produced on Day 10,[3],494.4
same,HiBu (isobutyrate) produced on Day 10,[3],14.0
same,HiVal (isovalerate) produced on Day 10,[3],3.2
same,Total VFA's produced on Day 10,[3],"1,125.6"
same,effect on starch fermentation,rumen microflora,neither monensin or lasalocid had any effect
same,Acetate,[2],7.2 Mu Moles/ml and 5.6 Mu Moles/ml
same,"Acetate, Mean",[2],6.4 Mu Moles/ml
same,Butyrate,[2],7.8 Mu Moles/ml and 7.9 Mu Moles/ml
same,"Butyrate, Mean",[2],7.6 Mu Moles/ml
same,CH4 (%),[2],5.6% and 6.2%
same,"CH4 (%), Average",[2],5.8%
same,"CH4, Percent Change",[2],-49.4%
same,H2 (%),[2],0.0%
same,"H2 (%), Average",[2],0.0%
same,Propionic,[2],20.7 Mu Moles/ml and 18.7 Mu Moles/ml
same,"Propionic, Mean",[2],19.7 Mu Moles/ml
same,Total,[2],32.2 Mu Moles/ml
same,"Total, Mean",[2],38.8 Mu Moles/ml
